# Results taken from patent publication EP2640377B1, “FGFR1 EXTRACELLULAR DOMAIN COMBINATION THERAPIES” (Five Prime Therapeutics, Inc., priority 2010, dated 2012).
# Where two headings read alike, the source gives them in different places.
# Assays:
# A549 cells = assay: A549 non-small cell lung cancer (NSCLC) xenograft model: tumor volume and body weight; conditions: for Fractional tumor volume (FTV), agent alone: day 32
# [1] = tested on: Human non-small cell lung cancer (NSCLC) cell line H1703; assay: H1703 non-small cell lung cancer (NSCLC) xenograft model: tumor volume and body weight; type: in vivo, SCID mice; conditions: day 38
# Description: Human non-small cell lung cancer (NSCLC) cell line H1703 was used as the tumor model and was purchased from ATCC (Manassas, VA; Cat. No. CRL-5889).
# Docetaxel was purchased from Toronto Research Chemicals (North York, Ontario, Canada; cat. No. D494420) and formulated in H2O containing 5% Tween 80 and 5% glucose. Docetaxel was administered i.p. at 25 mg/kg (equivalent to about 75 mg/m^2 in a human) once every three weeks for two doses. In combination groups, FGFR1-ECD.339-Fc and docetaxel were either given concurrently or sequentially with FGFR1-ECD.339-Fc given one day before docetaxel or vice versa. Human albumin was purchased from Grifols USA (Los Angeles, CA; Cat. No. NDC 61953-0002-1), formulated in PBS at 3 mg/mL and was used as negative control at 300 µg/100 µL/mouse (15 mg/kg). Table 2: Dosing Schedule
# The tumor volume was measured by external caliper to determine the greatest longitudinal diameter (length) and the greatest transverse diameter (width). The tumor volume was then calculated using the following formula: Tumorvolume(mm^3) = (length × width^2)/2 [formula]
# Table 3. Tumor volume analysis on day 38
# Table 4. Analysis of fractional tumor volumea on day 38
# [2] = tested on: Squamous cell lung cancer cell line NCI-H520; conditions: for Fractional tumor volume (FTV), agent alone / Tumor growth inhibition (%) / Mean Tumor volume mm^3(±SD): day 49; for Tumor growth inhibition (%): alone or with FGFR1-ECD.339-Fc 15 mg/kg; for Mean Tumor volume mm^3(±SD): alone or with FGFR1-ECD.339-Fc 15 mg/kg i.p. 2x/wk
# Description: Six to eight week old female SCID mice were purchased from Charles River Laboratories (Wilmington, MA) and were acclimated for 1 week before the start of the study. […] The cells were cultured for three to four passages in RPMI+10% FBS + 1% L-glutamine at 37°C in a humidified atmosphere with 5% CO2. When the cultured cells reached 85-90% confluence, cells were harvested and resuspended in cold Ca^2+ and Mg^2+ free PBS containing 50% Matrigel at 3.5 x10^7 cells/ml. The cells were implanted subcutaneously over the right flank of the mice at 3.5x10^6 cells/100µl/mouse. One day after tumor implantation, mice were randomized according to body weight at 10 mice per group. Dosing for all groups began one day post tumor implantation.
# FGFR1-ECD.339-Fc was formulated in PBS at 3 mg/ml and administered intraperitoneally (i.p.) at 15 mg/kg (300 µg/100 µl/mouse) twice a week for six weeks. […] In combination groups, FGFR1-ECD.339-Fc and pemetrexed were administered on the same schedule as when given as single agents, and were administered concurrently on days 1, 4, 8, and 11.
# The tumor volume and body weight of the mice were monitored twice a week throughout study.
# The mice were euthanized by isoflurane inhalation and cervical dislocation.
# The tumor volume of each group of mice on day 49 was analyzed by one-way ANOVA followed by Tukey's test.
# [3] = FGFR1-ECD.339-Fc 15 mg/kg i.p. twice a week, docetaxel 25 mg/kg i.p. once every three weeks for two doses
# [4] = pemetrexed 62.5 mg/kg i.p. QD x 5 x 2 cycles
# [5] = pemetrexed 125 mg/kg i.p. QD x 5 x 2 cycles
# [6] = pemetrexed 250 mg/kg i.p. (only first five doses given)
compound,measurement,setting,value
"CC[C@]1(O)C[C@H]2CN(CCc3c([nH]c4ccccc34)[C@@](C(=O)OC)(c3cc4c(cc3OC)N(C=O)[C@H]3[C@@](O)(C(=O)OC)[C@H](OC(C)=O)[C@]5(CC)C=CCN6CC[C@]43[C@@H]65)C2)C1 [Vincristine, methyl (1R,9R,10S,11R,12R,19R)-11-(acetyloxy)-12-ethyl-4-[(13S,15S,17S)-17-ethyl-17-hydroxy-13-(methoxycarbonyl)-1,11-diazatetracyclo[13.3.1.0^4,12.0^5,10]nonadeca-4(12),5,7,9-tetraen-13-yl]-8-formyl-10-hydroxy-5-methoxy-8,16-diazapentacyclo[10.6.1.0^1,9.0^2,7.0^16,19]nonadeca-2,4,6,13-tetraene-10-carboxylate]",weight loss,"A549 cells; higher dose of vincristine (1.5 mg/kg), Figure 9C",lost weight
same,weight loss,"A549 cells; lower dose of vincristine (1 mg/kg), data not shown",did not lose weight
"CC(=O)O[C@@]12CO[C@@H]1C[C@H](O)[C@@]1(C)C(=O)[C@H](O)C3=C(C)[C@@H](OC(=O)[C@H](O)[C@@H](NC(=O)OC(C)(C)C)c4ccccc4)C[C@@](O)([C@@H](OC(=O)c4ccccc4)[C@H]21)C3(C)C [Docetaxel, 1,7β,10β-trihydroxy-9-oxo-5β,20-epoxytax-11-ene-2α,4,13α-triyl 4-acetate 2-benzoate 13-{(2R,3S)-3-[(tert-butoxycarbonyl)amino]-2-hydroxy-3-phenylpropanoate}]",Mean Tumor volume mm^3(±SD),[1]; [3],209 (±303) mm^3
same,Tumor growth inhibition (%),[1]; [3],74%
same,"Fractional tumor volume (FTV), agent alone","[1]; FGFR1-ECD.339-Fc 15 mg/kg, docetaxel 25 mg/kg, FTV = mean TV treated / mean TV control",0.25
same,"Fractional tumor volume (FTV), agent alone",A549 cells; docetaxel 3 mg/kg i.p. twice per week alone,0.79
same,"Fractional tumor volume (FTV), agent alone",A549 cells; docetaxel 10 mg/kg i.p. twice per week alone,0.58
"Nc1nc2[nH]cc(CCc3ccc(C(=O)N[C@@H](CCC(=O)O)C(=O)O)cc3)c2c(=O)[nH]1 [Pemetrexed, (S)-2-[4-[2-(4-amino-2-oxo-3,5,7-triazabicyclo[4.3.0]nona-3,8,10-trien-9-yl)ethyl]benzoyl] aminopentanedioic acid]","Fractional tumor volume (FTV), agent alone",[2]; pemetrexed 62.5 mg/kg alone,0.59
same,Tumor growth inhibition (%),[2]; [4],40%
same,Mean Tumor volume mm^3(±SD),[2]; [4],544.7 (±341.5) mm^3
same,"Fractional tumor volume (FTV), agent alone",[2]; pemetrexed 125 mg/kg alone,0.75
same,Tumor growth inhibition (%),[2]; [5],24%
same,Mean Tumor volume mm^3(±SD),[2]; [5],689.5 (±328.7) mm^3
same,"Fractional tumor volume (FTV), agent alone",[2]; pemetrexed 250 mg/kg alone,1.00
same,Tumor growth inhibition (%),[2]; [6],1%
same,Mean Tumor volume mm^3(±SD),[2]; [6],926.6 (±339.9) mm^3
same,tumor inhibition over the course of the study,"[2]; highest dose of pemetrexed (250 mg/kg), alone or with FGFR1-ECD.339-Fc",did not appear to inhibit tumor growth
